Laboratory results reported in EPA's ToxRefDB 2.

Key:
rabbit [1] = conditions: Prenatal developmental toxicity study, new zealand white, Oral, Gavage/Intubation, dose end: 18 GD
rat [2] = conditions: Combined chronic toxicity/carcinogenicity, sprague dawley, Oral, Feed, dose end: 24 month, group: systemic
rat [3] = conditions: Prenatal developmental toxicity study, sprague dawley, Oral, Gavage/Intubation, dose end: 15 GD
rabbit [4] = conditions: Prenatal developmental toxicity study, new zealand white, Oral, Gavage/Intubation, dose end: 19 GD
dog = conditions: Chronic toxicity; beagle; Oral; Feed; dose end: 52 week; group: systemic; systemic / hematology / erythrocyte (rbc) count differential / erythrocyte (rbc) + systemic / hematology / platelet / platelet + systemic / …
rat [5] = conditions: Multigenerational reproductive toxicity study, sprague dawley, Oral, Feed, dose end: 2 generation
[6] = group: developmental, developmental / developmental malformation / bone / delayed ossification + developmental / developmental malformation / bone / fused + …
[7] = group: maternal, reproductive / offspring survival early / live fetuses / live fetuses + systemic / organ weight / uterus / nos
[8] = systemic / clinical chemistry / calcium / calcium + systemic / clinical chemistry / protein / protein + systemic / in life observation / …
[9] = systemic / organ weight / liver / relative to body weight
[10] = group: developmental, developmental / developmental malformation / bone / incomplete ossification
[11] = group: maternal, systemic / in life observation / clinical signs / alopecia + systemic / in life observation / clinical signs / blood around eyes and nose + …
[12] = group: developmental, developmental / developmental malformation / bone / fused
[13] = group: maternal, systemic / in life observation / body weight / body weight gain
[14] = group: offspring, systemic / in life observation / body weight / offspring (pup) weight
[15] = group: parental, systemic / in life observation / body weight / body weight + systemic / in life observation / body weight / body weight gain + systemic / in…

`C#CCOS(=O)OC1CCCCC1Oc1ccc(C(C)(C)C)cc1` (stereo not given) [Propargite] was tested, and the LEL (rabbit [1]; group: developmental, developmental / developmental malformation / bone / delayed ossification) was 6 mg/kg/day, the LOAEL (rabbit [1]; [6]) was greater than 18 mg/kg/day and the NEL (rabbit [1]; [6]) was 2 mg/kg/day. The NOAEL (rabbit [1]; [6]) was no less than 18 mg/kg/day, the LEL (rabbit [1]; [7]) was 2 mg/kg/day and the NEL (rabbit [1]; [7]) was less than 2 mg/kg/day. It also gave an LOAEL (rabbit [1]; group: maternal, systemic / in life observation / body weight / body weight gain + reproductive / offspring survival early / live fetuses / live fetuses) of 6 mg/kg/day, an NOAEL (rabbit [1]; group: maternal, systemic / in life observation / body weight / body weight gain + reproductive / reproductive performance / implantations / implantations + …) of 2 mg/kg/day and an LOAEL (rat [2]; [8]) of 19.2 mg/kg/day. The NOAEL (rat [2]; [8]) was 3.83 mg/kg/day, the LEL (rat [2]; [9]) was 2.95 mg/kg/day and the NEL (rat [2]; [9]) was less than 2.95 mg/kg/day. It also gave an LOAEL (rat [3]; group: developmental, developmental / developmental malformation / bone / absent + developmental / developmental malformation / bone / small) of 25 mg/kg/day, an LEL (rat [3]; [10]) of 6 mg/kg/day and an NEL (rat [3]; [10]) of less than 6 mg/kg/day. For the same molecule, the NOAEL (rat [3]; group: developmental, developmental / developmental malformation / bone / incomplete ossification + developmental / developmental malformation / bone / absent + …) was 6 mg/kg/day, the LEL (rat [3]; [11]) was 105 mg/kg/day and the LOAEL (rat [3]; [11]) was greater than 450 mg/kg/day. For the same molecule, the NEL (rat [3]; [11]) was 25 mg/kg/day, the NOAEL (rat [3]; [11]) was no less than 450 mg/kg/day and the LEL (rabbit [4]; [12]) was 10 mg/kg/day. The LOAEL (rabbit [4]; [12]) was 10 mg/kg/day, the NEL (rabbit [4]; [12]) was 8 mg/kg/day and the NOAEL (rabbit [4]; [12]) was 8 mg/kg/day. It also gave an LEL (rabbit [4]; [13]) of 8 mg/kg/day, an LOAEL (rabbit [4]; [13]) of 8 mg/kg/day and an NEL (rabbit [4]; [13]) of 6 mg/kg/day. The NOAEL (rabbit [4]; [13]) was 6 mg/kg/day, the LEL (dog) was 38 mg/kg/day and the LOAEL (dog) was 38 mg/kg/day. The NEL (dog) was 5 mg/kg/day, the NOAEL (dog) was 5 mg/kg/day and the LEL (rat [5]; [14]) was 40 mg/kg/day. For the same molecule, the LOAEL (rat [5]; [14]) was 40 mg/kg/day, the NEL (rat [5]; [14]) was 20 mg/kg/day and the NOAEL (rat [5]; [14]) was 20 mg/kg/day. For the same molecule, the LEL (rat [5]; [15]) was 20 mg/kg/day, the LOAEL (rat [5]; [15]) was 20 mg/kg/day and the NEL (rat [5]; [15]) was 4 mg/kg/day. For the same molecule, the NOAEL (rat [5]; [15]) was 4 mg/kg/day.
